In PMC8812547 (Proceedings of the National Academy of Sciences of the …, 2022):

How the values were obtained:
[1] = tested on: small dorsal root ganglion neurons; type: cell-based, mouse; settings: A803467 1 µM with sPm1a; n = 6; sPm1a vs. A803467/sPm1a P = 0.0007
[2] = tested on: TTX-R NaV channels of small DRG neurons; type: cell-based, mouse; settings: A803467 1 μM with sPm1a; TTX 0.5 μM; n = 5
adult mice (hindpaw) [3] = assay: mechanical paw withdrawal threshold; type: in vivo, mouse; settings: 200 pmol A803467 with 600 pmol sPm1a; n = 5 to 8; P < 0.001
adult mice (hindpaw) [4] = type: in vivo, mouse; settings: 0.2 nmol A803467 coadministered with 0.6 nmol sPm1a, intraplantar; P < 0.001
KV2.1 = settings: cited from earlier work

Molecule | inhibition of sPm1a-induced neuronal firing [1] | reduction of sPm1a-sensitive TTX-R NaV component [2] | paw withdrawal force (mechanical allodynia) (adult mice (hindpaw) [3]) | spontaneous nocifensive behavior, paw flinches (adult mice (hindpaw) [4]) | KV2.1 gating modification (KV2.1)
COc1cc(NC(=O)c2ccc(-c3ccc(Cl)cc3)o2)cc(OC)c1 [A803467] | abolished sPm1a-induced neuronal firing | 87.3 ± 11.1% | 2.5 ± 0.2 g | 93.8 ± 8.8 flinches per 15 min | –
ScTx1: gating-modifier venom peptide (DCTRMFGACRRDSDCCPHLGCKPTSKYCAWDGTI; Stromatoxin-1; UniProt P60991 1-34, looked up) | – | – | – | – | shifting its activation to more depolarized voltages
